Results taken from US20250073184A1, “CANNABIGEROQUINONE COMPOUNDS, COMPOSITIONS INCLUDING SUCH COMPOUNDS, AND USES OF SUCH COMPOUNDS AND COMPOSITIONS” (Juva Life, Inc., priority 2021, published 2025).
pEC50: −log10 of the molar value. Read-outs that look alike come from different tables or passages of the source.

Experiments:
[1] = tested on: IFNgamma; assay: IFNgamma secretion assay in human PBMCs (PHA-M, ELISA); format: cell-based; conditions: for pEC50: read-out: Inhibitory Activity EC50, IFNγ
Procedure: (§1) Fetal bovine serum (FBS) was obtained from ThermoFisher (Cat #16000044). • Other reagents: 96 well TC plates were obtained from ThermoFisher (Cat #07-2000-90).
(§2) IFN-gamma was assessed using a standard ELISA protocol. Cryopreserved PBMCs were thawed in a water bath and transferred to 50 mL polypropylene tubes. The cells were washed two times with 25 mL of RPMI medium supplemented with 5% of regular FBS and re-suspended at a density of 1.5^^6 cells/mL. The cells were plated into 96 well TC late (100 uL/well). Serially diluted compound was added to the cells in duplicate wells for each concentration. Control wells received DMSO only (0.3% final). The cells were pre-incubated with compound for 2 hr. After pre-incubation, the cells were stimulated by PHA-M (10 ug/mL) for 40 hr. Control samples with and without PHA-M in the absence of compound were assembled in each test plate. IFNg was detected in media supernatants by using a sandwich anti-IFNg ELISA kit (BD Biosciences) according to protocol provided by the manufacturer. ELISA readout (optical density at 450 nm) is commensurable with the amount of IFNg produced by the cells. Assay window was determined in each experiment by comparing average OD450 values in stimulated and un-stimulated samples in the absence of compound. ELISA calibration was performed in each detection plate using serially diluted recombinant human IFN gamma, to ensure that OD450 values for all test samples were within linear range of detection. %-Inhibition by compound was calculated using following equation:
where OD450100% is optical density in control samples stimulated with PHA-M without compound, OD4500% is optical density in unstimulated control samples, and OD450compound is optical density in a sample stimulated with PHA-M in the presence of compound.
The calculated %-Inh values were plotted against compound concentration. To determine IC50 values, dose-response curves were fitted by a 4-parameter sigmoid inhibition model using XLFit® software (IDBS).

[2] = tested on: IL10; assay: IL10 secretion assay in human PBMCs (PHA-M, ELISA); format: cell-based; conditions: for pEC50: read-out: Inhibitory Activity EC50, IL10
Procedure: as §1
as §2, with “Cryopreserved” for “IFN-gamma was assessed using a standard ELISA protocol. Cryopreserved”, “IFNg was detected in media supernatants by using a sandwich anti-IFNg ELISA kit (BD Biosciences) according to protocol provided by the manufacturer.” left out, “IL10” for “IFNg”, “IL10 standard,” for “IFN gamma,”, “detection.%-Inhibition” for “detection. %-Inhibition”
where OD450100% is optical density in control samples stimulated with PHA-M without compound, OD4500% is optical density in unstimulated control samples, and OD450compound is optical density in a sample stimulated with PHA-M in the presence of compound. The calculated %-Inh values were plotted against compound concentration. To determine IC50 values, dose-response curves were fitted by a 4-parameter sigmoid inhibition model using XLFit® software (IDBS).

[3] = biological target: T1, Recombinant human ALOX15 (Arachidonate 15-Lipoxygenase) (Homo sapiens, UniProt P16050); assay: Biochemical LOX-15 assay
T1 construct: full length encompassing amino acids 2-662(end); purchased BPS Biosciences 50220
T1 sequence (P16050 2-662): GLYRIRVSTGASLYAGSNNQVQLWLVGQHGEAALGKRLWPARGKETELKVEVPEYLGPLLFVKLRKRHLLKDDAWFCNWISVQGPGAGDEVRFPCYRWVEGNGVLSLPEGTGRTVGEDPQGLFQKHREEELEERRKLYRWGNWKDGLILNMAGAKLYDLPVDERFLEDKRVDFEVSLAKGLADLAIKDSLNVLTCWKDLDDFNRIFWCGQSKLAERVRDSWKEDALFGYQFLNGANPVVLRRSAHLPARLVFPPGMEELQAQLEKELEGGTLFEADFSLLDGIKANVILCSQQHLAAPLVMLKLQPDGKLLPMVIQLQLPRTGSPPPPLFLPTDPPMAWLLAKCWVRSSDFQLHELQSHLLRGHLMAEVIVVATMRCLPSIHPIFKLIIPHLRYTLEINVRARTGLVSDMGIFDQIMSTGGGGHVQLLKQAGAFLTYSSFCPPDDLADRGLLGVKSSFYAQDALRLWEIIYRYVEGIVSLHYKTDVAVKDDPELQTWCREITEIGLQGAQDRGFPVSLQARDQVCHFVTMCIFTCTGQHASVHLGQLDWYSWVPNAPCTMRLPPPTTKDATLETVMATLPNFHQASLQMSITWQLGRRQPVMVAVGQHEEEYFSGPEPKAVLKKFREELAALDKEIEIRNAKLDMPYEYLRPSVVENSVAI
Procedure: The LOX-15 assay was performed in assay buffer comprising: 50 mM Tris (pH 7.5), 5 uM DHR, 50 uM AA, and 50 nM recombinant enzyme. Serially diluted compounds were prepared in DMSO in Echo qualified 384 well plates. An assay buffer was then prepared […] supplemented 10 uM DHRA. 10 uL of the supplemented buffer was dispensed into control (no enzyme) wells in the black 384 well assay plate. Next, a 2× enzyme solution was prepared, comprising 100 nM LOX-15 enzyme in the supplemented assay buffer. 10 μL of the 2× enzyme solution was then dispensed into test wells in the black 384 well assay plate. Serially diluted compounds were added to the assay plate by acoustic dispensing (Labcyte 550). Control wells received DMSO only.
Next, the 2× substrate was prepared to comprise 100 uM arachidonic acid in the assay buffer. 10 uL of the 2× substrate was then added to all wells in the assay plate. The plate was incubated for 3 hours.
where RFU100% is fluorescence in control samples without compound, RFU0% is fluorescence in control samples without LOX-15, and RFUcompound fluorescence in a sample with compound.
The calculated %-Inh values were plotted against compound concentration. To determine EC50 values, dose-response curves were fitted by a 4-parameter sigmoid inhibition model using XLFit® software (IDBS).

[4] = PBMC, human PBMCs, PHA-M 10 ug/mL 40 hr
[5] = recombinant enzyme, read-out: Inhibitory Activity EC50, 15-Lox
[6] = human PBMCs, PHA-M 10 ug/mL 40 hr

## CCCCCc1cc(OC(C)=O)c(C/C=C(\C)CCC=C(C)C)c(O)c1OC(C)=O [Formula XLIII]
[1]; [4]
  pEC50: 5.95
[2]
  inhibitory activity on IL-10: particular strong inhibitory activity
[2]; [4]
  pEC50: 5.92
[3]
  pEC50: 5.08

## CCCCCc1cc(OC)c(C/C=C(\C)CCC=C(C)C)c(O)c1OC [Formula XLII]
[1]; [4]
  pEC50: 5.39
[2]; [4]
  pEC50: < 5.00
[3]
  pEC50: 4.74

## CCCCCC1=C(NC)C(=O)C(C/C=C(\C)CCC=C(C)C)=C(O)C1=O [Formula XLI]
[1]; [4]
  pEC50: 5.60
[2]
  inhibitory activity on IL-10: particular strong inhibitory activity
[2]; [4]
  pEC50: < 5.00
[3]
  pEC50: 4.54

## CCCCCc1cc(O)c(C/C=C(\C)CCC=C(C)C)c(O)c1O [Formula XXXIX]
[1]; Homo sapiens, PBMC, 40 h
  pEC50: 5.73
[2]
  inhibitory activity on IL-10: particular strong inhibitory activity
[2]; Homo sapiens, PBMC, 40 h
  pEC50: 5.77
[3]; [5]
  pEC50: 5.55

## Cannabigerol Quinone [Formula VI]
[1]
  stronger inhibition of IFNγ compared to Cox-2: over 60 fold
[1]; [6]
  pEC50: 6.04
[2]; [6]
  pEC50: 5.96
[3]
  stronger inhibition of 15-Lox compared to Cox-2: over 60 fold
[3]; [5]
  pEC50: 6.01
